Laboratory results: paper PMC12563681, “Cecytb-2, a Cytochrome b561 Homolog, Functions as an Ascorbate-Specific Transmembrane Ferric Reductase at Intestinal Lumens of Caenorhabditis elegans” (Biomolecules, 2025)

Columns and labels:
Cecytb-2 (Cecytb-2-H6) [1] = target: T1, Cecytb-2 (Cecytb-2-H6) (Caenorhabditis elegans, UniProt O16271); experiment: pulse radiolysis, heme oxidation at […] nm; parameters: gene CELE_F39G3.5; conditions: electron acceptor; 10 mM AsA present, pH 7.0, 1% octyl glucoside
T1 sequence (O16271 1-251): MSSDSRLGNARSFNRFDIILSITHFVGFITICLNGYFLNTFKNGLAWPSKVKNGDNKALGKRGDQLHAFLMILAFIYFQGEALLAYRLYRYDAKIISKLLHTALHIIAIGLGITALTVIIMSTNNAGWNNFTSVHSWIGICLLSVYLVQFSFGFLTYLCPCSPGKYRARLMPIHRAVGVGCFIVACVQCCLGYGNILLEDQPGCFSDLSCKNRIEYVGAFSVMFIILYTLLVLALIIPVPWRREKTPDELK

Cecytb-2 (Cecytb-2-H6) [2] = target: T1, Cecytb-2 (Cecytb-2-H6); experiment: stopped-flow heme reduction at […] nm; type: biochemical; parameters: gene CELE_F39G3.5; full length, 251 residues, 28,127 Da native; expressed in Pichia pastoris GS115, purified from microsomes in octyl glucoside; Ser2, Ser3 at N-terminus; two b hemes; conditions: electron donor; pH 7.0, 1% octyl glucoside, about 25 °C

SMILES	pulse radiolysis, heme oxidation at 435 nm (Cecytb-2 (Cecytb-2-H6) [1])	stopped-flow heme reduction at 426 nm (Cecytb-2 (Cecytb-2-H6) [2])
[O]C1=C(O)[C@@H]([C@@H](O)CO)OC1=O [MDA radical]	heme oxidation of Cecytb-2-H6 by the generated MDA radical	
O=C1O[C@H]([C@@H](O)CO)C(O)=C1O [AsA]		second-order rate constant (k1) for the heme reduction with AsA was estimated
